This experiment has as its target T1, bond between rTRX and rMIF (Homo sapiens, UniProt P10599).
T1 construct: His tag; made in house; host or cells: Escherichia coli
T1 sequence (P10599 1-105): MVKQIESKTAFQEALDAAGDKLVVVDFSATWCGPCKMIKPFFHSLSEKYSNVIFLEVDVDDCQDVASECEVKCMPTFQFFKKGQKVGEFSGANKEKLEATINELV
The experiment in a line: Screening by molecular interaction analysis (Biacore, SPR) for test substances that strengthen the bond between TRX and MIF. The class given is binding. The settings on record: test substance 500 µM mixed with rTRX 5 µM (Prostaglandin 12 also at 5 µM); FIGS. 7 to 11. As to the method:
For several test substances, it was confirmed with a molecular interaction analysis whether they strengthened the bond between TRX and MIF or not.
rTRX; (same as the rTRX of Example 5) rMIF; (same as the rMIF of Example 5) BIAcore2000; (CM5 sensor chip)
N-acetylglucosamine Nitrosoglutathione Prostaglandin 12
rMIF was immobilized in a CM5 sensor chip as a ligand. The ligand was adjusted to have the rMIF concentration of less or equal to 200 nM by using running buffer, 10 mM HEPES (pH7.4), 150 mM NaCl, 3 mM EDTA and 0.005% Tween 20.
Then, N-acetylglucosamine, Nitrosoglutathione and Prostaglandin 12 were mixed with rTRX, respectively, to form three types of analytes.
In each analyte, the concentration of rTRX was 5 µM and the concentration of the test substance was 500 µM. For Prostaglandin 12, the analyte having its concentration of 5 µM was also analyzed.

On to Prostaglandin 12, for which the “effect on the bond between rTRX and rMIF” value was “remarkably strengthen the bond between rTRX and rMIF”.
